The values below come from PubChem BioAssay AID212 (DTP/NCI, 2004).

“And” between values parts separate entries of the source, which are not always exact repeats. Equal entries are not always repeated. Results filed as inconclusive are left out.

For this experiment, the system named is BDF1 mice, colon carcinoma 38 sc, T/C %. The experiment can be described thus: NCI In Vivo Anticancer Drug Screen. Data for tumor model Colon Carcinoma 38 (subcutaneous) in B6D2F1 (BDF1) mice. Particulars: endpoint: median tumor weight (est.), higher = larger tumour. The method, boiled down: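 T/C readout: treated group (T) measurement over vehicle control group (C) measurement. Endpoint is survival or tumor size in mice bearing a transplanted tumor.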

Setting [1] is: dose: 100.0 mg/kg/injection, schedule: Q07DX002 (ip), vehicle: saline.
[2] abbreviates: dose: 400.0 mg/kg/injection, schedule: Q07DX002 (ip), vehicle: saline.
[3] abbreviates: dose: 12.5 mg/kg/injection, schedule: Q07DX002 (ip), vehicle: distilled water + Tween-80.
[4] abbreviates: dose: 25.0 mg/kg/injection, schedule: Q07DX002 (ip), vehicle: distilled water + Tween-80.
The mark [5] stands for this setting: dose: 25.0 mg/kg/injection, schedule: Q07DX002 (ip), vehicle: saline with Tween-80.
The mark [6] stands for this setting: dose: 100.0 mg/kg/injection, schedule: Q07DX002 (ip), vehicle: saline with Tween-80.
Where [7] appears, read: dose: 400.0 mg/kg/injection, schedule: Q07DX002 (ip), vehicle: saline with Tween-80.
[8] abbreviates: dose: 12.5 mg/kg/injection, schedule: Q07DX002 (ip), vehicle: saline with Tween-80.

Consider `C/C=C\C1OC1(C)c1cc(=O)c2c(C)cc3c(c2o1)C(=O)c1c(O)c(C2CC(C)(N(C)C)C(OC(C)=O)C(C)O2)cc(C2CC(N(C)C)C(O)C(C)O2)c1C3=O` (stereo not drawn), for which the T/C (dose: 0.38 mg/kg/injection, schedule: Q07DX002 (ip), vehicle: saline + alcohol) was 119 % of control; the T/C (dose: 0.75 mg/kg/injection, schedule: Q07DX002 (ip), vehicle: saline + alcohol) is 85 % of control; the T/C (dose: 3.0 mg/kg/injection, schedule: Q07DX002 (ip), vehicle: saline + alcohol) was 58 % of control; the T/C (dose: 6.0 mg/kg/injection, schedule: Q07DX002 (ip), vehicle: saline + alcohol) is 53 % of control.

For `NC(=S)c1ncn(C2OC(CO)C(O)C2O)c1N` (stereo not drawn), the T/C (dose: 12.5 mg/kg/injection, schedule: Q07DX002 (ip), vehicle: suspension in saline) was 114 % of control; the T/C (dose: 25.0 mg/kg/injection, schedule: Q07DX002 (ip), vehicle: suspension in saline) is 80 % of control; the T/C (dose: 50.0 mg/kg/injection, schedule: Q07DX002 (ip), vehicle: saline) was 106 % of control; the T/C (dose: 50.0 mg/kg/injection, schedule: Q07DX002 (ip), vehicle: suspension in saline) was 87 % of control; the T/C under setting [1] is 118 % of control; the T/C (dose: 100.0 mg/kg/injection, schedule: Q07DX002 (ip), vehicle: suspension in saline) is 67 % of control. In addition, the T/C is, setting by setting: (dose: 200.0 mg/kg/injection, schedule: Q07DX002 (ip), vehicle: saline) 259 % of control; (dose: 200.0 mg/kg/injection, schedule: Q07DX002 (ip), vehicle: suspension in saline) 56 % of control; under setting [2], 226 % of control; (dose: 400.0 mg/kg/injection, schedule: Q07DX002 (ip), vehicle: suspension in saline) 67 % of control.

Regarding `NC(=O)CC(N)C(=O)O` (stereo not drawn), the T/C (dose: 50.0 mg/kg/injection, schedule: Q07DX002 (ip), vehicle: other) is 72 % of control; the T/C (dose: 100.0 mg/kg/injection, schedule: Q07DX002 (ip), vehicle: other) was 85 % of control; the T/C (dose: 200.0 mg/kg/injection, schedule: Q07DX002 (ip), vehicle: other) was 79 % of control; the T/C (dose: 400.0 mg/kg/injection, schedule: Q07DX002 (ip), vehicle: other) is 91 % of control; the T/C (dose: 800.0 mg/kg/injection, schedule: Q07DX002 (ip), vehicle: other) is 118 % of control; the T/C (dose: 1600.0 mg/kg/injection, schedule: Q07DX002 (ip), vehicle: other) was 88 % of control.

In the case of `ClC(Cl)(Cl)C1=NCc2nnn(Cc3ccccc3)c2N1`, the T/C under setting [3] was 116 % of control; the T/C under setting [4] is 80 % of control; the T/C under setting [5] is 97 % of control; the T/C under setting [6] was 102 % of control; the T/C (dose: 200.0 mg/kg/injection, schedule: Q07DX002 (ip), vehicle: distilled water + Tween-80) is 80 % of control; the T/C under setting [7] was 155 % of control.

`COc1cc(NCc2ccc3nc(N)nc(N)c3c2C)cc(OC)c1OC` (tested in a mixture with another compound): the T/C (dose: 105.0 mg/kg/injection, schedule: Q07DX002 (ip), vehicle: water) was 86 % of control; the T/C (dose: 157.0 mg/kg/injection, schedule: Q07DX002 (ip), vehicle: water) was 100 % of control; the T/C (dose: 236.0 mg/kg/injection, schedule: Q07DX002 (ip), vehicle: water) is 75 % of control.

For `CCOC(=O)c1ccc(NC(=O)Nc2nncs2)cc1`, the T/C by setting is: under setting [3], 194 % of control; under setting [4], 90 % of control; (dose: 50.0 mg/kg/injection, schedule: Q07DX002 (ip), vehicle: distilled water + Tween-80) 94 % of control.

`OCC1(CO)COC2(CCCCC2)N1`: the T/C is 118 % of control and 102 % of control under setting [1]; 112 % of control and 122 % of control under setting [2].

For the compound `NC1=NC(O)C=C1` (stereo not drawn), the T/C is, setting by setting: (dose: 7.5 mg/kg/injection, schedule: Q07DX002 (ip), vehicle: saline) 90 % of control; (dose: 15.0 mg/kg/injection, schedule: Q07DX002 (ip), vehicle: saline) 103 % of control; (dose: 30.0 mg/kg/injection, schedule: Q07DX002 (ip), vehicle: saline) 100 % of control; (dose: 60.0 mg/kg/injection, schedule: Q07DX002 (ip), vehicle: saline) 87 % of control.

For the compound `O=[N+]([O-])O.O=[N+]([O-])O.[NH-]C1CCCCC1[NH-].[Pt+2]` (stereo not drawn), the T/C is 101 % of control (dose: 0.5 mg/kg/injection, schedule: Q07DX002 (ip), vehicle: dextrose); 62 % of control and 81 % of control (dose: 2.0 mg/kg/injection, schedule: Q07DX002 (ip), vehicle: dextrose); 62 % of control and 81 % of control (dose: 4.0 mg/kg/injection, schedule: Q07DX002 (ip), vehicle: dextrose); 27 % of control and 33 % of control (dose: 8.0 mg/kg/injection, schedule: Q07DX002 (ip), vehicle: dextrose).

With `BrC1c2cccc3cccc(c23)C1Br` (stereo not drawn), the T/C by setting is: under setting [8], 103 % of control; under setting [5], 117 % of control and 120 % of control; under setting [6], 97 % of control and 107 % of control; (dose: 200.0 mg/kg/injection, schedule: Q07DX002 (ip), vehicle: saline with Tween-80) 108 % of control and 111 % of control; under setting [7], 85 % of control.

With `CC1=CC(C)(C)Nc2ccc(CSc3ccccc3)cc21`, the T/C was 88 % of control (dose: 6.25 mg/kg/injection, schedule: Q07DX002 (ip), vehicle: DMSO); 86 % of control (dose: 12.5 mg/kg/injection, schedule: Q07DX002 (ip), vehicle: DMSO); 78 % of control (dose: 12.5 mg/kg/injection, schedule: Q07DX002 (ip), vehicle: saline + Tween-80 + alcohol); 76 % of control (dose: 25.0 mg/kg/injection, schedule: Q07DX002 (ip), vehicle: DMSO); 86 % of control (dose: 25.0 mg/kg/injection, schedule: Q07DX002 (ip), vehicle: saline + Tween-80 + alcohol); 67 % of control (dose: 50.0 mg/kg/injection, schedule: Q07DX002 (ip), vehicle: DMSO). Also, the T/C is 107 % of control (dose: 50.0 mg/kg/injection, schedule: Q07DX002 (ip), vehicle: saline + Tween-80 + alcohol); 59 % of control (dose: 100.0 mg/kg/injection, schedule: Q07DX002 (ip), vehicle: DMSO); 102 % of control (dose: 100.0 mg/kg/injection, schedule: Q07DX002 (ip), vehicle: saline + Tween-80 + alcohol).

`c1ccc([P+](c2ccccc2)(c2ccccc2)c2ccccc2)cc1`: the T/C is, setting by setting: (dose: 0.75 mg/kg/injection, schedule: Q07DX002 (ip), vehicle: saline) 91 % of control; (dose: 0.75 mg/kg/injection, schedule: Q07DX003 (ip), vehicle: saline) 84 % of control; (dose: 1.5 mg/kg/injection, schedule: Q07DX002 (ip), vehicle: saline) 95 % of control; (dose: 1.5 mg/kg/injection, schedule: Q07DX003 (ip), vehicle: saline) 83 % of control; (dose: 3.0 mg/kg/injection, schedule: Q07DX002 (ip), vehicle: saline) 77 % of control; (dose: 3.0 mg/kg/injection, schedule: Q07DX003 (ip), vehicle: saline) 69 % of control. The T/C is, setting by setting: (dose: 6.0 mg/kg/injection, schedule: Q07DX002 (ip), vehicle: saline) 112 % of control; (dose: 6.0 mg/kg/injection, schedule: Q07DX003 (ip), vehicle: saline) 66 % of control.

For the compound `N#CC(=C1C=CC(=NO)C=C1)c1ccc(Cl)cc1`, the T/C is 72 % of control under setting [8], 100 % of control under setting [5], 103 % of control under setting [6] and 46 % of control under setting [7].
